The text below walks through data of PubChem BioAssay (NCI).

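Cultured in 96-well plates, cells were exposed to test compound for 48 hours across five concentrations. GI50 = concentration required for 50% inhibition of growth. TGI: total growth inhibition.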

Common to all, as to test: inhibition of tumour cell growth, NCI panel, 48 h
The subject of assay [1] is ACHN renal.
Assay [2] relates to HCC-2998 colon.
Assay [3] relates to HCT-116 colon.
The subject of assay [4] is HOP-62 NSCLC.
The test system of assay [5] is HOP-92 NSCLC.
The test system of assay [6] is IGROV1 ovarian.
Assay [7] has as its system NCI-H226 lung.
In assay [8] the test system is SK-MEL-2 melanoma.
The subject of assay [9] is SR leukemia.
Assay [10] deals with DU-145 prostate.

Consider `O=C(CC1=Nc2nnc(CCCCCCCc3nnc4n3C(=O)C(CC(=O)c3ccc5ccccc5c3)=N4)n2C1=O)c1ccc2ccccc2c1`, for which the TGI in assay [1], in [2], in assay [3], in [4], in assay [5] and in assay [6] was > 100 µM in each case. The TGI in assay [7], in assay [8] and in [9] was > 100 µM in each case.

Regarding `COC1(OC)C2(Cl)C3=CCCC=C3C1(Cl)C(Cl)=C2Cl`, the TGI is > 100 µM in [1]; > 100 µM in assay [2]; 43.9 µM in [3]; 71.1 µM in assay [4]; 70.1 µM in [5]; > 100 µM in [6]. In addition, the TGI in assay [7] was determined as 82.4 µM; in assay [8], 36 µM; in assay [9] it was 53.5 µM.

Turning to `Oc1ccc(Cl)cc1C=Nc1cnc2ccccc2c1`, the TGI in assay [1], in assay [10], in [3], in [4], in [5] and in assay [6] was > 100 µM in each case. The TGI in assay [7] is > 100 µM; in [8] it was > 80.6 µM; in [9], > 100 µM.

As to `CN1CCN(C2=NC(=O)/C(=C\c3ccc(N(C)C)cc3)S2)CC1`, the GI50 in assay [1] was > 100 µM; in assay [10], > 100 µM; in [2], > 100 µM; in [3], > 100 µM; in [4], > 100 µM; in [6] it was 72.5 µM. Besides, the GI50 is > 100 µM in assay [7], > 100 µM in assay [8] and 57.4 µM in assay [9]. Also, the TGI in assay [1], in [10], in [2], in [3], in assay [4] and in assay [6] was > 100 µM in each case. For the same compound, the TGI in assay [7], in assay [8] and in assay [9] was > 100 µM each time.

For `COc1ccc(-c2ccc(C3CC(c4ccccc4)=NN3)o2)c([N+](=O)[O-])c1` (stereo not given), the GI50 was 57.7 µM in assay [1]; 82.6 µM in [10]; 25.5 µM in assay [2]; 33.5 µM in [3]; 52.7 µM in assay [4]; 24.8 µM in assay [5]. The GI50 is > 100 µM in assay [6] and 30.3 µM in [9]. The TGI in assay [1] is > 100 µM; in [10] it was > 100 µM; in assay [2], 58.5 µM; in [3] it was > 100 µM; in assay [4], > 100 µM; in [5] it was 68.2 µM. Further, the TGI in [6] is > 100 µM; in [9], 87.9 µM.

With `O=C1CC23CCCCCCCCCCC2(C1)CC(=O)C3` (stereo not given), the TGI was > 100 µM in assay [1]; > 100 µM in [2]; 51.8 µM in assay [5]; 83 µM in assay [6]; > 100 µM in assay [7]; 42.9 µM in assay [8]. In [9], the TGI turned out to be 56.5 µM.

With `CC(=O)N1[C@H](C(=O)O)CS[C@H]1c1ccc(F)cc1`, the TGI was > 100 µM in assay [1]; > 100 µM in [2]; 78.7 µM in assay [3]; > 100 µM in [4]; > 100 µM in [5]; > 100 µM in assay [6]. Also, the TGI in assay [7] and in assay [9] was > 100 µM throughout.

As for `COc1cc2c(cc1OCCNC(=O)/C=C1\C[C@H]3C=Nc4cc(OCc5ccccc5)c(OC)cc4C(=O)N3C1)N=C[C@@H]1CCCN1C2=O`, the GI50 in assay [1] was 25.8 µM; in assay [10], 19.4 µM; in [3], 2.93 µM; in assay [4], 4.27 µM; in [6], 1.42 µM; in [7], 32 µM. For the same compound, the GI50 is 1.58 µM in assay [8] and 1.46 µM in assay [9]. Besides, the TGI was found to be 71.5 µM in [1]; 37.3 µM in assay [10]; 11.9 µM in assay [3]; 23.6 µM in assay [4]; 5.64 µM in assay [6]; 60.1 µM in [7]. In addition, the TGI was found to be 3.56 µM in assay [8] and 4.56 µM in assay [9].

In the case of `COC(=O)C1CC(c2ccc(OC)c(OC)c2)OC1=O` (mixture of isomers), the TGI in assay [1], in assay [2], in assay [3], in assay [4], in assay [5] and in assay [6] was > 100 µM each time. Moreover, the TGI in assay [7] and in [9] was > 100 µM each time.

With `COC(=O)C1C=CCC2CCCCC21N1CCCC1` (stereo not given), the TGI in assay [1], in assay [2], in assay [3], in assay [4], in assay [5] and in assay [6] was > 100 µM in each case. Also, the TGI in [7] and in assay [9] was > 100 µM each time.

On to `COc1cc2c(cc1C)NC(=O)/C2=C/c1ccnc2ccccc12`, for which the GI50 in assay [1] is 10.3 µM; in [10], 29.1 µM; in assay [2] it was 35.7 µM; in [3], 24.4 µM; in assay [4] it was > 50 µM; in assay [5] it was 12.4 µM. The GI50 in assay [6] was 12.6 µM; in assay [8] it was 26.3 µM; in assay [9] it was 8.47 µM. Further, the TGI in assay [1] was 25.6 µM; in [10] it was > 50 µM; in [2], > 50 µM; in assay [3] it was > 50 µM; in [4], > 50 µM; in [5], > 50 µM. Further, the TGI in [6], in assay [8] and in [9] was > 50 µM throughout.

Consider `c1ccc2c(c1)[nH]c1c2nc2ccccn21`, for which the TGI in assay [1], in assay [2], in assay [3], in [4], in assay [5] and in assay [6] was > 100 µM throughout. The TGI in [7], in assay [8] and in [9] was > 100 µM each time.
